Molecular target: tyrosinase
Assay: absorbance at […] nm, L-DOPA oxidation
Type: biochemical
Settings: L-DOPA […] stock, […] phosphate, pH […] °C, […] min preincubation

- Control (Quercetin) / IC50 (μg/mL)s: 22.15 ± 0.12 µg/mL
Structure (SMILES): O=c1c(O)c(-c2ccc(O)c(O)c2)oc2cc(O)cc(O)c12 [Quercetin]
